The nature of this assay: Inhibitory activity against human gamma-secretase using SH-SY5Y cells. It counts as cell-based.
One may read the IC50 as the concentration at which inhibition is half-maximal. The low end stands for greater potency, the high end for weaker potency. Take `CN1C(=O)C(NC(=O)CCc2ccc(F)cc2)N=C(c2ccc(C(N)=O)cc2)c2ccccc21` (centres undefined): the IC50 came to 110 nM.
The compound `CN1C(=O)C(NC(=O)CCc2ccc(F)c(F)c2)N=C(c2ccc(C(N)=O)cc2)c2ccccc21` (centres undefined) displayed an IC50 of 29 nM.
`CN1C(=O)C(NC(=O)CCc2cc(F)cc(F)c2)N=C(c2ccc(C(N)=O)cc2)c2ccccc21` (centres undefined) returned an IC50 of 110 nM.
Regarding `CN1C(=O)C(NC(=O)CCc2cccc(Cl)c2Cl)N=C(c2ccc(C(N)=O)cc2)c2ccccc21` (centres undefined), half-maximal inhibition (IC50) required 22 nM.
For `Cc1ccc(CCC(=O)NC2N=C(c3ccc(C(N)=O)cc3)c3ccccc3N(C)C2=O)cc1` (centres undefined), the half-maximal inhibitory concentration (IC50) is 180 nM.
As for `CN1C(=O)[C@@H](NC(=O)C(Cc2ccc(Cl)c(Cl)c2)c2ccsc2)N=C(c2ccccc2)c2ccccc21` (some centres undefined), the figure is 100 nM; as for `CN1C(=O)C(NC(=O)CCc2cc(Cl)cc(Cl)c2)N=C(c2ccc(C(N)=O)cc2)c2ccccc21` (centres undefined), 40 nM.
For the compound `CN1C(=O)C(NC(=O)CCc2c(Cl)cccc2Cl)N=C(c2ccc(C(N)=O)cc2)c2ccccc21` (centres undefined), 3200 nM corresponded to half-maximal inhibition (IC50).
Under `CN1C(=O)C(NC(=O)CCc2ccc(N)cc2)N=C(c2ccc(C(N)=O)cc2)c2ccccc21` (centres undefined) stands greater than 10000 nM.
Turning to `COc1ccccc1CCC(=O)NC1N=C(c2ccc(C(N)=O)cc2)c2ccccc2N(C)C1=O` (centres undefined), half-maximal inhibition (IC50) required 5100 nM.
The compound `CN1C(=O)[C@@H](NC(=O)[C@@H](Cc2ccc(Cl)c(Cl)c2)NC(=O)OC(C)(C)C)N=C(c2ccccc2)c2ccccc21` registered an IC50 of 750 nM. Compared with the last compound, the IC50 is about 6.8-fold lower.
In turn, `CN1C(=O)C(NC(=O)CCc2cccc(O)c2)N=C(c2ccc(C(N)=O)cc2)c2ccccc21` (centres undefined) came in with a half-inhibitory concentration (IC50) of 6800 nM. This IC50 is about 9.1-fold higher than that of the compound before.
Under `CN1C(=O)[C@@H](NC(=O)[C@@H](Cc2ccc(Cl)c(Cl)c2)N2CCCC2)N=C(c2ccccc2)c2ccccc21` stands 405 nM.
Regarding `C[C@@H](Cc1ccc(Cl)cc1Cl)C(=O)N[C@H]1N=C(c2ccccc2)c2ccccc2N(C)C1=O`, the IC50 was found to be 820 nM.
As for `COc1ccc(CCC(=O)NC2N=C(c3ccc(C(N)=O)cc3)c3ccccc3N(C)C2=O)cc1` (centres undefined), the figure is 1340 nM; as for `CN1C(=O)[C@@H](NC(=O)[C@H](Cc2ccc(Cl)c(Cl)c2)c2ccc(F)cc2)N=C(c2ccccc2)c2ccccc21`, 15 nM; as for `COc1cccc(CCC(=O)NC2N=C(c3ccc(C(N)=O)cc3)c3ccccc3N(C)C2=O)c1` (centres undefined), 1600 nM.
On to `CC(Cc1ccc(Cl)cc1Cl)C(=O)NC1N=C(c2ccc(C(N)=O)cc2)c2ccccc2N(C)C1=O` (centres undefined), for which half-maximal inhibition (IC50) required 8 nM.
As for `CN1C(=O)[C@@H](NC(=O)[C@H](Cc2ccc(F)c(F)c2)c2ccc(F)cc2)N=C(c2ccccc2)c2ccccc21`, the figure is 3.8 nM.
Under `CN1C(=O)C(NC(=O)CCc2ccc(Cl)cc2)N=C(c2ccc(C(N)=O)cc2)c2ccccc21` (centres undefined) stands 15 nM.
Under `CN1C(=O)C(NC(=O)CCc2cccc(Cl)c2)N=C(c2ccc(C(N)=O)cc2)c2ccccc21` (centres undefined) stands 93 nM; under `CN1C(=O)C(NC(=O)CCCc2ccccc2)N=C(c2ccc(C(N)=O)cc2)c2ccccc21` (centres undefined), 5000 nM.
On to `CN1C(=O)C(NC(=O)CCc2ccc(Cl)cc2Cl)N=C(c2ccc(C(N)=O)cc2)c2ccccc21` (centres undefined), for which half-maximal inhibition (IC50) required 33 nM. This IC50 lies about 150-fold lower than the previous one.
Under `CN1C(=O)C(NC(=O)CCc2ccc(Cl)c(Cl)c2)N=C(c2ccc(C(N)=O)cc2)c2ccccc21` (centres undefined) stands 12 nM; under `CN1C(=O)[C@@H](NC(=O)[C@@H](Cc2ccc(Cl)c(Cl)c2)c2ccccc2)N=C(c2ccccc2)c2ccccc21`, 72 nM; under `CN1C(=O)C(NC(=O)CCc2ccc(O)cc2)N=C(c2ccc(C(N)=O)cc2)c2ccccc21` (centres undefined), greater than 10000 nM.
As for `C[C@@H](Cc1ccc(Cl)c(Cl)c1)C(=O)N[C@H]1N=C(c2ccccc2)c2ccccc2N(C)C1=O`, the figure is 320 nM.
Under `CN1C(=O)C(NC(=O)C(C)(C)Cc2ccc(Cl)cc2Cl)N=C(c2ccc(C(N)=O)cc2)c2ccccc21` (centres undefined) stands 400 nM; under `CN1C(=O)C(NC(=O)Cc2ccc(Cl)cc2Cl)N=C(c2ccc(C(N)=O)cc2)c2ccccc21` (centres undefined), greater than 10000 nM.
Regarding `CN1C(=O)C(NC(=O)CCc2ccccc2)N=C(c2ccc(C(N)=O)cc2)c2ccccc21` (centres undefined), 340 nM corresponded to half-maximal inhibition (IC50). That is a sub-micromolar value.
As for `C[C@@H](Cc1ccc(F)c(F)c1)C(=O)N[C@H]1N=C(c2ccccc2)c2ccccc2N(C)C1=O`, the figure is 220 nM; as for `CN1C(=O)[C@@H](NC(=O)C(Cc2ccc(Cl)c(Cl)c2)c2cccs2)N=C(c2ccccc2)c2ccccc21` (some centres undefined), 37 nM; as for `CN1C(=O)C(NC(=O)/C=C/c2ccc(Cl)cc2Cl)N=C(c2ccc(C(N)=O)cc2)c2ccccc21` (centres undefined), 4700 nM.
Take `Cc1nc(C(Cc2ccc(Cl)c(Cl)c2)C(=O)N[C@H]2N=C(c3ccccc3)c3ccccc3N(C)C2=O)cs1` (some centres undefined): half-maximal inhibition (IC50) required 640 nM.
As for `CN1C(=O)[C@@H](NC(=O)[C@H](Cc2ccc(Cl)c(Cl)c2)c2ccc(Br)cc2)N=C(c2ccccc2)c2ccccc21`, the figure is 100 nM; as for `CN1C(=O)C(NC(=O)CCc2ccccc2Cl)N=C(c2ccc(C(N)=O)cc2)c2ccccc21` (centres undefined), 305 nM.
Regarding `CN1C(=O)C(NC(=O)CCc2cc(Cl)ccc2Cl)N=C(c2ccc(C(N)=O)cc2)c2ccccc21` (centres undefined), the half-maximal inhibitory concentration (IC50) is 60 nM.
Under `CN1C(=O)[C@@H](NC(=O)[C@H](Cc2ccc(Cl)c(Cl)c2)c2ccccc2)N=C(c2ccccc2)c2ccccc21` stands 180 nM; under `C[C@@H](Cc1ccc(Cl)cc1Cl)C(=O)N[C@@H]1N=C(c2ccccc2)c2ccccc2N(C)C1=O`, greater than 10000 nM.
`CN1C(=O)C(NC(=O)CCc2cc(C(F)(F)F)cc(C(F)(F)F)c2)N=C(c2ccc(C(N)=O)cc2)c2ccccc21` (centres undefined) registered an IC50 of 400 nM. That is a sub-micromolar value.
Under `CN1C(=O)[C@@H](NC(=O)[C@H](Cc2ccc(Cl)c(Cl)c2)N2CCCC2)N=C(c2ccccc2)c2ccccc21` stands 350 nM; under `C[C@H](Cc1ccc(Cl)cc1Cl)C(=O)NC1N=C(c2ccc(C(N)=O)cc2)c2ccccc2N(C)C1=O` (single isomer, unassigned; diastereomer A), 42 nM.
As for `C[C@@H](Cc1ccc(Cl)cc1Cl)C(=O)NC1N=C(c2ccc(C(N)=O)cc2)c2ccccc2N(C)C1=O` (single isomer, unassigned; diastereomer A), inhibition was half-maximal at 500 nM (IC50).
The compound `CN1C(=O)[C@@H](NC(=O)C(Cc2ccc(Cl)c(Cl)c2)c2ccncc2)N=C(c2ccccc2)c2ccccc21` (single isomer, unassigned; diastereomer A) gave a half-maximal inhibitory concentration (IC50) of 1360 nM.
As for `CC(C)C(Cc1ccc(Cl)c(Cl)c1)C(=O)N[C@H]1N=C(c2ccccc2)c2ccccc2N(C)C1=O` (single isomer, unassigned; diastereomer A), the figure is 440 nM; as for `C[C@H](Cc1ccc(Cl)cc1Cl)C(=O)NC1N=C(c2ccc(C(N)=O)cc2)c2ccccc2N(C)C1=O` (single isomer, unassigned; diastereomer B), 920 nM.
As for `C[C@@H](Cc1ccc(Cl)cc1Cl)C(=O)NC1N=C(c2ccc(C(N)=O)cc2)c2ccccc2N(C)C1=O` (single isomer, unassigned; diastereomer B), the figure is 1.9 nM; as for `CN1C(=O)[C@@H](NC(=O)C(Cc2ccc(Cl)c(Cl)c2)c2ccncc2)N=C(c2ccccc2)c2ccccc21` (single isomer, unassigned; diastereomer B), 190 nM; as for `CC(C)C(Cc1ccc(Cl)c(Cl)c1)C(=O)N[C@H]1N=C(c2ccccc2)c2ccccc2N(C)C1=O` (single isomer, unassigned; diastereomer B), 240 nM.

The record behind these values is ChEMBL document CHEMBL1144978, “A new series of potent benzodiazepine gamma-secretase inhibitors” (Bioorg Med Chem Lett, 2003).
